Experimental data from ChEMBL document CHEMBL1126393, “Design, synthesis and activity against human cytomegalovirus of non-phosphorylatable analogs of toyocamycin, sangivamycin and thiosangivamycin” (Bioorg Med Chem Lett, 1992).

Legend:
[1] = Cytotoxicity of compound in uninfected cells determined by examining the effect on growth of KBcells; format: functional, Homo sapiens
HFF [2] = assay: In vitro inhibition of human cytomegalovirus in HFF cells by plaque reduction assay.; format: functional, cell-based
HFF [3] = assay: Cytotoxicity of compound in uninfected cells determined by examining the effect on growth of HFF cells; format: functional, Homo sapiens
[4] = Selectivity index is the ratio of CC50 to IC50; format: functional
HFF [5] = assay: Visual cytotoxicity of compound in uninfected cells determined by examining the effect on growth of HFF cells; format: functional, Homo sapiens

## CCCn1cc(C#N)c2c(N)ncnc21
[1]
  Cytotoxicity: >100 µM
HFF [2]
  IC50: 36 µM

## NC(=O)c1cn(COCCO)c2ncnc(N)c12
HFF [3]
  Cytotoxicity: >100 µM
HFF [2]
  IC50: > 100 µM

## Cn1cc(C(N)=O)c2c(N)ncnc21
[1]
  Cytotoxicity: >100 µM
HFF [2]
  IC50: > 100 µM

## CCCn1cc(C(=N)S)c2c(N)ncnc21
[1]
  Cytotoxicity: 17 µM
[4]
  SI: 14
HFF [2]
  IC50: 1.2 µM

## NC(=S)c1cn(COCCO)c2ncnc(N)c12
[1]
  Cytotoxicity: 115 µM
[4]
  SI: 13
HFF [2]
  IC50: 8.8 µM

## NC(=S)c1cn(COC(CO)CO)c2ncnc(N)c12
HFF [3]
  Cytotoxicity: >100 µM
HFF [2]
  IC50: 6.2 µM

## N#Cc1cn(COC(CO)CO)c2ncnc(N)c12
HFF [5]
  Cytotoxicity: >100 µM
HFF [2]
  IC50: > 100 µM

## Cn1cc(C(=N)S)c2c(N)ncnc21
[1]
  Cytotoxicity: 14.7 µM
[4]
  SI: 12
HFF [2]
  IC50: 1.2 µM

## CCCn1cc(C(N)=O)c2c(N)ncnc21
[1]
  Cytotoxicity: 90 µM
HFF [2]
  IC50: > 100 µM

## Cn1cc(C#N)c2c(N)ncnc21
[1]
  Cytotoxicity: >100 µM
HFF [2]
  IC50: > 100 µM

## C=CCn1cc(C(N)=O)c2c(N)ncnc21
[1]
  Cytotoxicity: 90 µM
HFF [2]
  IC50: > 100 µM

## Nc1nc2c(ncn2COC(CO)CO)c(=O)[nH]1 [GANCICLOVIR]
[1]
  Cytotoxicity: >100 µM
HFF [2]
  IC50: 8.4 µM

## C=CCn1cc(C#N)c2c(N)ncnc21
[1]
  Cytotoxicity: >100 µM
HFF [2]
  IC50: > 100 µM

## C=CCn1cc(C(N)=S)c2c(N)ncnc21
[1]
  Cytotoxicity: 19 µM
[4]
  SI: 9
HFF [2]
  IC50: 2.1 µM

## NC(=O)c1cn(COC(CO)CO)c2ncnc(N)c12
HFF [3]
  Cytotoxicity: >100 µM
HFF [2]
  IC50: > 100 µM

## N#Cc1cn(COCCO)c2ncnc(N)c12
HFF [5]
  Cytotoxicity: >100 µM
HFF [2]
  IC50: > 100 µM
